Here are results for 23 compounds from patent publication US20250270200A1, “CTPS1 INHIBITORS AND USES THEREOF” (Nimbus Clotho, Inc., priority 2022, published 2025).

SMILES strings stand for the structures. pIC50: −log10 of the molar value. Counter-ions that a name gives are not always drawn.

The target of the first assay is T1, human CTPS1 (Homo sapiens, UniProt P17812).
T1 sequence (P17812 1-591): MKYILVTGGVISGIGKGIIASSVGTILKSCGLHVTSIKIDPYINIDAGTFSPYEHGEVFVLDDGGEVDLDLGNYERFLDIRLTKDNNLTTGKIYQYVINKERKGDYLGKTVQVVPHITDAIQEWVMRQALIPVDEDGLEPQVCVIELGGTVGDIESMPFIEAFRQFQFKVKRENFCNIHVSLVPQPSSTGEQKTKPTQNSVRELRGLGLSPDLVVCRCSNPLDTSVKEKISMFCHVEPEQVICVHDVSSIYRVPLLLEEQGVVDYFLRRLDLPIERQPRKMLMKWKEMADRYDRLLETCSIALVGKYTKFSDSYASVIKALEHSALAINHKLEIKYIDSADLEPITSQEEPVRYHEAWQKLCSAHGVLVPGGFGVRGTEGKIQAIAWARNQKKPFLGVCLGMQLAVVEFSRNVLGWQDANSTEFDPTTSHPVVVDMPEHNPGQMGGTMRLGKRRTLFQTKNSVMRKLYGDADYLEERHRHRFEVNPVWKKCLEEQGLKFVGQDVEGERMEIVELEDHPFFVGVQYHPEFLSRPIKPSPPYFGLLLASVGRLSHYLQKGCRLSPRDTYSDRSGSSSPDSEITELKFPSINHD
In words: ADP-Glo assay, human CTPS1 enzyme inhibition. In kind it is biochemical. As to conditions: wild-type human CTPS1 25 nM; ATP 120 μM, UTP 160 μM, GTP 60 μM, L-glutamine 100 μM; 25 degrees C.; read-out: ADP-Glo_WT_hCTPS1—25 nM_IC50 (IC50). An outline of the steps: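 ADP-Glo luminescence quantified ADP produced by 25 nM purified human CTPS1 (full length, FLAG-His tagged) at 25° C within the linear phase. Final substrates: ATP 120 μM, UTP 160 μM, GTP 60 μM, L-glutamine 100 μM; 1% DMSO; pH 7.4 HEPES buffer with Mg2+, KCl, DTT. Compound pre-incubated with enzyme 10 min, then with ATP/UTP 10 min.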
On to `CCOc1cncc(-c2cnc(C(=O)N[C@H](c3cccc(NS(=O)(=O)C(F)F)c3)[C@H](C)CN3CCCCC3)s2)n1` (single isomer, unassigned) [II-13], for which the pIC50 was less than 7.00.

The assay is the same for the next values; noted with them: wild-type human CTPS1, 25 nM enzyme; ADP-Glo; read-out: ADP-Glo_WT_hCTPS1—25 nM_IC50 (IC50).
For the compound `CCOc1cncc(-c2cnc(C(=O)N[C@@H](c3cccc(NS(=O)(=O)C(F)F)c3)[C@@H]3CCOC3)s2)n1` [I-189, N-((R)-(3-((difluoromethyl)sulfonamido)phenyl)((S)-tetrahydrofuran-3-yl)methyl)-5-(6-ethoxypyrazin-2-yl)thiazole-2-carboxamide], the pIC50 is no less than 8.30.

As to `CCOc1cncc(-c2cnc(C(=O)N[C@@H](CN3CCCCC3)c3cccc(NS(=O)(=O)C(F)F)c3)s2)n1` [I-219, (R)-N-(1-(3-((difluoromethyl)sulfonamido)phenyl)-2-(piperidin-1-yl)ethyl)-5-(6-ethoxypyrazin-2-yl)thiazole-2-carboxamide], the pIC50 was 7.60 to 8.30. Consider `CCOc1cncc(-c2cnc(C(=O)N[C@H](c3cc(NS(=O)(=O)C4CC4)ccn3)[C@H]3CCN(C4CC4)C3)s2)n1` [I-112, N-((S)-(4-(cyclopropanesulfonamido)pyridin-2-yl)((S)-1-cyclopropylpyrrolidin-3-yl)methyl)-5-(6-ethoxypyrazin-2-yl)thiazole-2-carboxamide], for which the pIC50 was 7.60 to 8.30. With `O=C(N[C@@H](CN1CCCC1)c1cccc(NS(=O)(=O)C(F)F)c1)c1ncc(-c2cnn3ccc(Cl)cc23)s1` [I-221, (R)-5-(5-chloropyrazolo[1,5-a]pyridin-3-yl)-N-(1-(3-((difluoromethyl)sulfonamido)phenyl)-2-(pyrrolidin-1-yl)ethyl)thiazole-2-carboxamide], the pIC50 is 7.30 to 7.60. As for `CCOc1cncc(-c2cnc(C(=O)N[C@H](c3cc(NS(=O)(=O)C4CC4)ccn3)[C@@H](C)CN3CCCCC3)s2)n1` (stereo in doubt) [I-54, N-((1S,2S)-1-(4-(cyclopropanesulfonamido)pyridin-2-yl)-2-methyl-3-(piperidin-1-yl)propyl)-5-(6-ethoxypyrazin-2-yl)thiazole-2-carboxamide], the pIC50 is 7.60 to 8.30. The same measure, in the same setting: then `CCOc1cncc(-c2cnc(C(=O)N[C@H](CN3CC[C@@]4(CCOC4)C3)c3cc(NS(=O)(=O)C4CC4)ccn3)s2)n1` [I-126, N-((R)-1-(4-(cyclopropanesulfonamido)pyridin-2-yl)-2-((R)-2-oxa-7-azaspiro[4.4]nonan-7-yl)ethyl)-5-(6-ethoxypyrazin-2-yl)thiazole-2-carboxamide], with 7.60 to 8.30; and `CCOc1cncc(-c2cnc(C(=O)N[C@H](Cn3nccn3)c3cccc(NS(=O)(=O)C(F)F)c3)s2)n1` [I-216, (S)-N-(1-(3-((difluoromethyl)sulfonamido)phenyl)-2-(2H-1,2,3-triazol-2-yl)ethyl)-5-(6-ethoxypyrazin-2-yl)thiazole-2-carboxamide], with no less than 8.30. `CCOc1cncc(-c2cnc(C(=O)N[C@H](c3cc(NS(=O)(=O)C4CC4)ccn3)[C@H](C)OC)s2)n1` (single isomer, unassigned) [I-47]: the pIC50 is 7.60 to 8.30. On to `CCOc1cncc(-c2cnc(C(=O)N[C@@H](CN3CC[C@@](C)(O)C3)c3cccc(NS(=O)(=O)C(F)F)c3)s2)n1` [I-206, N-((R)-1-(3-((difluoromethyl)sulfonamido)phenyl)-2-((R)-3-hydroxy-3-methylpyrrolidin-1-yl)ethyl)-5-(6-ethoxypyrazin-2-yl)thiazole-2-carboxamide], for which the negative logarithm of the IC50 (pIC50) is 7.60 to 8.30. As to `CCOc1cncc(-c2cnc(C(=O)N(C)[C@@H](c3cc(NS(=O)(=O)C4CC4)ccn3)[C@@H]3CCOC3)s2)n1` [I-66, N-((R)-(4-(cyclopropanesulfonamido)pyridin-2-yl)((S)-tetrahydrofuran-3-yl)methyl)-5-(6-ethoxypyrazin-2-yl)-N-methylthiazole-2-carboxamide], the pIC50 is 7.30 to 7.60. With `O=C(NC(CCN1CCCCC1)c1cc(NS(=O)(=O)C2CC2)ccn1)c1ncc(-c2cnn3ccc(Cl)cc23)s1` (centres unmarked) [I-8, 5-(5-chloropyrazolo[1,5-a]pyridin-3-yl)-N-(1-(4-(cyclopropanesulfonamido)pyridin-2-yl)-3-(piperidin-1-yl)propyl)thiazole-2-carboxamide], the pIC50 was 7.30 to 7.60. As for `CCOc1cncc(-c2cnc(C(=O)N[C@@H](C[C@@H]3CCCCN3C(C)C)c3cc(NS(=O)(=O)C4CC4)ccn3)s2)n1` (single isomer, unassigned) [I-26], the pIC50 was less than 7.00. Consider `CCOc1cncc(-c2cnc(C(=O)N[C@@H](CN3CC[C@](C)(O)C3)c3cc(NS(=O)(=O)C4CC4)ccn3)s2)n1` [I-130, N-((S)-1-(4-(cyclopropanesulfonamido)pyridin-2-yl)-2-((S)-3-hydroxy-3-methylpyrrolidin-1-yl)ethyl)-5-(6-ethoxypyrazin-2-yl)thiazole-2-carboxamide], for which the pIC50 was 7.60 to 8.30. `C[C@@H](O)[C@H](NC(=O)c1ncc(-c2cnn3ccc(Cl)cc23)s1)c1cc(NS(=O)(=O)C2CC2)ccn1` [I-271, 5-(5-chloropyrazolo[1,5-a]pyridin-3-yl)-N-((1R,2R)-1-(4-(cyclopropanesulfonamido)pyridin-2-yl)-2-hydroxypropyl)thiazole-2-carboxamide]: the pIC50 is 7.60 to 8.30. For the compound `CCOc1cncc(-c2cnc(C(=O)N[C@H](c3cccc(NS(=O)(=O)C(F)F)c3)[C@@H]3CCOC3)s2)n1` [I-188, N-((S)-(3-((difluoromethyl)sulfonamido)phenyl)((S)-tetrahydrofuran-3-yl)methyl)-5-(6-ethoxypyrazin-2-yl)thiazole-2-carboxamide], the pIC50 was 7.60 to 8.30. For `CCOc1cncc(-c2cnc(C(=O)N[C@H](CN3CC[C@](C)(O)C3)c3cccc(NS(=O)(=O)C(F)F)c3)s2)n1` [I-208, N-((S)-1-(3-((difluoromethyl)sulfonamido)phenyl)-2-((S)-3-hydroxy-3-methylpyrrolidin-1-yl)ethyl)-5-(6-ethoxypyrazin-2-yl)thiazole-2-carboxamide, formic acid salt], the pIC50 is 7.60 to 8.30. With `CCOc1cncc(-c2cnc(C(=O)N[C@H](c3cccc(NS(=O)(=O)C(F)F)c3)[C@H]3CCOC3)s2)n1` [I-187, N-((S)-(3-((difluoromethyl)sulfonamido)phenyl)((R)-tetrahydrofuran-3-yl)methyl)-5-(6-ethoxypyrazin-2-yl)thiazole-2-carboxamide], the negative-log IC50 (pIC50) was 7.60 to 8.30. For `CCOc1cncc(-c2cnc(C(=O)N[C@@H](Cn3nccn3)c3cc(NS(=O)(=O)C4CC4)ccn3)s2)n1` [I-157, (S)-N-(1-(4-(cyclopropanesulfonamido)pyridin-2-yl)-2-(2H-1,2,3-triazol-2-yl)ethyl)-5-(6-ethoxypyrazin-2-yl)thiazole-2-carboxamide], the pIC50 is 7.30 to 7.60. In the case of `CCOc1cncc(-c2cnc(C(=O)N[C@H](COC)c3nccc(NS(=O)(=O)C4CC4)c3F)s2)n1` (single isomer, unassigned) [I-12], the pIC50 was 7.60 to 8.30.

As to `CCOc1cncc(-c2cnc(C(=O)N[C@H](c3cc(NS(=O)(=O)C4CC4)ccn3)[C@@H](C)COC)s2)n1` [I-236, N-((1S,2R)-1-(4-(cyclopropanesulfonamido)pyridin-2-yl)-3-methoxy-2-methylpropyl)-5-(6-ethoxypyrazin-2-yl)thiazole-2-carboxamide], the pIC50 is no less than 8.30. In the case of `CCOc1cncc(-c2cnc(C(=O)N[C@@H](c3cc(NS(=O)(=O)C4CC4)ccn3)C(C)(C)OC)s2)n1` [I-91, (S)-N-(1-(4-(cyclopropanesulfonamido)pyridin-2-yl)-2-methoxy-2-methylpropyl)-5-(6-ethoxypyrazin-2-yl)thiazole-2-carboxamide], the pIC50 was 7.60 to 8.30.

Turning to `CCOc1cncc(-c2cnc(C(=O)N[C@H](c3cc(NS(=O)(=O)C4CC4)ncn3)[C@@H]3CCOC3)s2)n1` [I-256, N-((S)-(6-(cyclopropanesulfonamido)pyrimidin-4-yl)((S)-tetrahydrofuran-3-yl)methyl)-5-(6-ethoxypyrazin-2-yl)thiazole-2-carboxamide], the pIC50 is 7.60 to 8.30.
